Key:
[1] = mn = molality of the nth substance listed, in mol/kg; conditions: 101 kPa, Liquid, m2 = 0; for viscosity: Capillary tube (Ostwald / Ubbelohde) method
[2] = 101 kPa, Liquid; for viscosity: Capillary tube (Ostwald / Ubbelohde) method

CC#N [acetonitrile] + O=C(Oc1ccccc1)c1ccccc1O
[1]
Conditions | mass density [kg/m3] | viscosity [mPa·s]
293.15 K | 782.499 | 0.3081
298.15 K | 777.099 | 0.2857
303.15 K | 771.674 | 0.2642
308.15 K | 766.217 | 0.2444
310.15 K | 763.991 | 0.2374
313.15 K | 760.702 | 0.2267

CC#N [acetonitrile]
[2]
Conditions | mass density [kg/m3] | viscosity [mPa·s]
293.15 K | 782.499 | 0.3081
298.15 K | 777.099 | 0.2857
303.15 K | 771.674 | 0.2642
308.15 K | 766.217 | 0.2444
310.15 K | 763.991 | 0.2374
313.15 K | 760.702 | 0.2267

— the NIST ThermoML archive (doi:10.1021/je8003595)
